The source of these data is ChEMBL document CHEMBL3991601, “The target landscape of clinical kinase drugs” (Science, 2017).

Assay [1] has as its target T1, Phosphatidylinositol 5-phosphate 4-kinase type-2 alpha (Homo sapiens, UniProt P48426).
T1 sequence (P48426 whole entry): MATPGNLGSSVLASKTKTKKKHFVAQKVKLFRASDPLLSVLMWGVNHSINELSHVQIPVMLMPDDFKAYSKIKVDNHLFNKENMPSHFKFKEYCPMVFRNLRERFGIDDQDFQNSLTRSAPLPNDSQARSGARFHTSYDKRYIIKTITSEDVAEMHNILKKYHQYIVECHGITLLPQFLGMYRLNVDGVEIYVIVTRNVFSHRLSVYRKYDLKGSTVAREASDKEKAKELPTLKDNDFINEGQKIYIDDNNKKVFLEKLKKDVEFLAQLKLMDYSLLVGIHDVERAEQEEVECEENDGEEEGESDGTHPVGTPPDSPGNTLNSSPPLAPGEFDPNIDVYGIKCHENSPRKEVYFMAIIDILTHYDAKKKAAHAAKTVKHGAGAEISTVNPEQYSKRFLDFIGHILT

The target of assay [2] is T2, Ephrin type-B receptor 3 (Homo sapiens, UniProt P54753).
T2 sequence (P54753 whole entry): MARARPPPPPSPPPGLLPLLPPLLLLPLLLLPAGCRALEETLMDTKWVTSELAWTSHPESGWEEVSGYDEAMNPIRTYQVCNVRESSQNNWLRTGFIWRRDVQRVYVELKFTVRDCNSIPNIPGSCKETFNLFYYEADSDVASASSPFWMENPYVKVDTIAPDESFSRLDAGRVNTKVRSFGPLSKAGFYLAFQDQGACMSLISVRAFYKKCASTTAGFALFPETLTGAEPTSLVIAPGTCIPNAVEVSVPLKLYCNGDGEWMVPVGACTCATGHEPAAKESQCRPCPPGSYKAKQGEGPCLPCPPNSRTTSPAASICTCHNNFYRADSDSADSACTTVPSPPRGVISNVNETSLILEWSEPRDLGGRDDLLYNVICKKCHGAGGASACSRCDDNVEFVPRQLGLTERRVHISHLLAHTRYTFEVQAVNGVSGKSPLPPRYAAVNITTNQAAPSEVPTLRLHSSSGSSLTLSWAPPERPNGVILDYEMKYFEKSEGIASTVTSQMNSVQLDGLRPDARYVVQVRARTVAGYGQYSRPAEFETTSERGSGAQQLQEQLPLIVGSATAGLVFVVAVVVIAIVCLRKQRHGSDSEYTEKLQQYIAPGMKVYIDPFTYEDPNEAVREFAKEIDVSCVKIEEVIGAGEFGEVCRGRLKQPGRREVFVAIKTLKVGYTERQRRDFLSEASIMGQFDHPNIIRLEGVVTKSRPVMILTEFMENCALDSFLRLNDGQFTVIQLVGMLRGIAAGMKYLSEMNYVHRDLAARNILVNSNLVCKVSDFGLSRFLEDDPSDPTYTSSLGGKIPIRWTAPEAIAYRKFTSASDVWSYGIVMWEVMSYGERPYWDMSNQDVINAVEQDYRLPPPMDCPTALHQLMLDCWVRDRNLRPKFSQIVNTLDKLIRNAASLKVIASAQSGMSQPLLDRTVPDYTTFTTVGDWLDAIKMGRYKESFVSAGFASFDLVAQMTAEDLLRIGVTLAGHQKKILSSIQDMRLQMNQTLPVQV

Assay [3] has as its target GTP-binding protein 4 (Homo sapiens, UniProt Q9BZE4).
Assay [4] deals with Calcium/calmodulin-dependent protein kinase type II subunit delta (Homo sapiens, UniProt Q13557).
Assay [5] deals with Serine/threonine-protein kinase 16 (Homo sapiens, UniProt O75716).
Assay [6] deals with T3, Peroxisomal acyl-coenzyme A oxidase 3 (Homo sapiens, UniProt O15254).
T3 sequence (O15254 whole entry): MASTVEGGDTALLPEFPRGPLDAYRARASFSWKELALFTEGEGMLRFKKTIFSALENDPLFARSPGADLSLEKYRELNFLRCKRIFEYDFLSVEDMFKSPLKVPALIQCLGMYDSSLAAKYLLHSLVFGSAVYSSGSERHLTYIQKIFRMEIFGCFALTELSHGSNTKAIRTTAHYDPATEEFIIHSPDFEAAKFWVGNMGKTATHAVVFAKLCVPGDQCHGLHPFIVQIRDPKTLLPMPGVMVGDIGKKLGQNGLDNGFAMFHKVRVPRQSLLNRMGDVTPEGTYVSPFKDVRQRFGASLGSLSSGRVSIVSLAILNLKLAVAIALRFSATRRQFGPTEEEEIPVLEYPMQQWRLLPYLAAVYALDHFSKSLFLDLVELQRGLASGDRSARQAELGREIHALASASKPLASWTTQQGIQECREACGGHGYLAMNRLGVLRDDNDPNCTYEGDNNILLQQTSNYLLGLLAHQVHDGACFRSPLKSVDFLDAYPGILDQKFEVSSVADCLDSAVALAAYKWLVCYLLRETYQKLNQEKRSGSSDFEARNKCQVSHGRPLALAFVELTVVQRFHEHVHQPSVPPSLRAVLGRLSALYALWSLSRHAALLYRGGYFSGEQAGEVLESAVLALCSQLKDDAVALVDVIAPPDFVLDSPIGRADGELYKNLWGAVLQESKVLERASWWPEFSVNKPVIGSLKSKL

Assay [7] concerns the target T4, Adenine phosphoribosyltransferase (Homo sapiens, UniProt P07741).
T4 sequence (P07741 whole entry): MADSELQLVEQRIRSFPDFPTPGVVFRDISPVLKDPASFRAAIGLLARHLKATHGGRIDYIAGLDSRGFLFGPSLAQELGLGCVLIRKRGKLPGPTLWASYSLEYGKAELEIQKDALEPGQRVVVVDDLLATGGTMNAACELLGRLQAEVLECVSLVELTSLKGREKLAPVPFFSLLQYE

Assay [8] concerns the target 5'-AMP-activated protein kinase catalytic subunit alpha-1 (Homo sapiens, UniProt Q13131).

Structures are written as SMILES. Calls of active or inactive are those of the source. Some results are limits rather than exact numbers.
Further: in the data inactive means no Kd found up to 30 µM.

Sequence of Calcium/calmodulin-dependent protein kinase type II subunit delta (Q13557 whole entry): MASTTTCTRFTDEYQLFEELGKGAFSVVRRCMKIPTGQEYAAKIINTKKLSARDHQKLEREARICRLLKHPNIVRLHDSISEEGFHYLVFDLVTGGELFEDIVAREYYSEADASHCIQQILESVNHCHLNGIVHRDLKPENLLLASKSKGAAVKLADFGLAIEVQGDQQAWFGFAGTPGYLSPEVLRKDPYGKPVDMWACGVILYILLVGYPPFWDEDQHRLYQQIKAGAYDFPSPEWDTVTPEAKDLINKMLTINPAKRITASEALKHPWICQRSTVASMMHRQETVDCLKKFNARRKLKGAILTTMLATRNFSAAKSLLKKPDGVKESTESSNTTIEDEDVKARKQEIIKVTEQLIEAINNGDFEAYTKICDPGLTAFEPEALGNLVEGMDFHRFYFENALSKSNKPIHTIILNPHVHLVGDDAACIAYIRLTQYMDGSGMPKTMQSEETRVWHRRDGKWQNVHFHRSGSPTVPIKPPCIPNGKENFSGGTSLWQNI
Sequence of Serine/threonine-protein kinase 16 (O75716 whole entry): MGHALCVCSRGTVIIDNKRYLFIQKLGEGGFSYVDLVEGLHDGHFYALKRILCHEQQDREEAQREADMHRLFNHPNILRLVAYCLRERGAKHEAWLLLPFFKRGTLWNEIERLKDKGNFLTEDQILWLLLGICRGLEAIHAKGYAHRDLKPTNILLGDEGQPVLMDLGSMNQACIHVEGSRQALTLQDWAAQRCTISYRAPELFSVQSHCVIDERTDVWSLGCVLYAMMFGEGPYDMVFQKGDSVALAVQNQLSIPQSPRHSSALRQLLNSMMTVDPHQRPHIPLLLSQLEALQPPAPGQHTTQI
Sequence of 5'-AMP-activated protein kinase catalytic subunit alpha-1 (Q13131 whole entry): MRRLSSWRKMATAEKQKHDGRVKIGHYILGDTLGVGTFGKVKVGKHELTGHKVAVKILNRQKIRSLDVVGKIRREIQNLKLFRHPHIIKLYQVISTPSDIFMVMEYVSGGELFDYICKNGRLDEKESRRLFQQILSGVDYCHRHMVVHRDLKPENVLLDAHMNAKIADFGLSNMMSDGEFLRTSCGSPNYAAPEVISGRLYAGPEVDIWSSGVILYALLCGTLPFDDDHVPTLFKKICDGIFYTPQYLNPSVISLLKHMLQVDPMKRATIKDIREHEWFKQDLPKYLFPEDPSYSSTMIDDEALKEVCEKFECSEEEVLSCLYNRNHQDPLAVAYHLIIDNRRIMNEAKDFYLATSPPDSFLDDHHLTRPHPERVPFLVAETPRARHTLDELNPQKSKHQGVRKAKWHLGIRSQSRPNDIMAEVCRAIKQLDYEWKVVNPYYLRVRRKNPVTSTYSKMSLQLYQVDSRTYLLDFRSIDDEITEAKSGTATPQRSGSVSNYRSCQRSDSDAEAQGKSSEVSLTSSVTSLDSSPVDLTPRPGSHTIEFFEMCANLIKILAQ

One may read the Kd as the constant that tells how readily two partners part at equilibrium. With `Cn1c(=O)n(-c2ccc(C(C)(C)C#N)cc2)c2c3cc(-c4cnc5ccccc5c4)ccc3ncc21` [DACTOLISIB], the Kd in assay [1], in assay [2], in assay [3], in assay [4], in assay [5] and in assay [6] was > 30 µM (inactive) throughout. Also, in assay [7], the Kd is > 30 µM (inactive).
For `C[C@@]1(C(=O)Nc2ccc(F)nc2)CCCN1c1nc(Nc2cc(C3CC3)n[nH]2)c2cccn2n1` [BMS-754807], the Kd in assay [1], in assay [3], in assay [6] and in assay [7] was > 30 µM (inactive) each time.
As for `CN(c1ncccc1CNc1nc(Nc2ccc3c(c2)CC(=O)N3)ncc1C(F)(F)F)S(C)(=O)=O` [PF-00562271], the Kd in assay [1] is > 30 µM (inactive); in assay [2], > 30 µM (inactive); in assay [3], > 30 µM (inactive); in assay [5], 0.138 µM (active); in assay [6], > 30 µM (inactive); in assay [7], > 30 µM (inactive).
Take `N#CCNC(=O)c1ccc(-c2ccnc(Nc3ccc(N4CCOCC4)cc3)n2)cc1` [MOMELOTINIB]: the Kd in assay [1] is > 30 µM (inactive); in assay [2] it was > 30 µM (inactive); in assay [3] it was > 30 µM (inactive); in assay [5], 1.28 µM (active); in assay [8], > 30 µM (inactive); in assay [6] it was > 30 µM (inactive). Besides, in assay [7], the Kd was > 30 µM (inactive).
Turning to `COc1cc2c(Oc3ccc4[nH]c(C)cc4c3F)ncnc2cc1OCCCN1CCCC1` [CEDIRANIB], the Kd in assay [1], in assay [3], in assay [6] and in assay [7] was > 30 µM (inactive) in each case.
For `Cn1cnc2c(F)c(Nc3ccc(Br)cc3Cl)c(C(=O)NOCCO)cc21` [SELUMETINIB], the Kd in assay [1], in assay [3], in assay [6] and in assay [7] was > 30 µM (inactive) each time.
`COc1cc2c(N3CCN(C(=O)Nc4ccc(OC(C)C)cc4)CC3)ncnc2cc1OCCCN1CCCCC1` [TANDUTINIB]: the Kd in assay [1], in assay [3], in assay [6] and in assay [7] was > 30 µM (inactive) in each case.
Take `CCN(CCCOc1ccc2c(Nc3cc(CC(=O)Nc4cccc(F)c4)n[nH]3)ncnc2c1)CCOP(=O)(O)O` [BARASERTIB]: the Kd in assay [1], in assay [2], in assay [3], in assay [4], in assay [5] and in assay [6] was > 30 µM (inactive) each time. Moreover, the Kd in assay [7] is > 30 µM (inactive).
Take `CC1(C)CNc2cc(NC(=O)c3cccnc3NCc3ccncc3)ccc21` [MOTESANIB]: the Kd in assay [1], in assay [3], in assay [6] and in assay [7] was > 30 µM (inactive) each time.
As for `C=CCn1c(=O)c2cnc(Nc3ccc(N4CCN(C)CC4)cc3)nc2n1-c1cccc(C(C)(C)O)n1` [ADAVOSERTIB], the Kd in assay [2], in assay [3], in assay [4], in assay [5], in assay [6] and in assay [7] was > 30 µM (inactive) each time.
As for `CN(C)C/C=C/C(=O)Nc1cc2c(Nc3ccc(F)c(Cl)c3)ncnc2cc1O[C@H]1CCOC1` [AFATINIB], the Kd in assay [1], in assay [3], in assay [6] and in assay [7] was > 30 µM (inactive) each time.
On to `O=S(=O)(c1cccc2cnccc12)N1CCCNCC1` [FASUDIL], for which the Kd in assay [1], in assay [2], in assay [3], in assay [4], in assay [5] and in assay [6] was > 30 µM (inactive) each time. Besides, the Kd in assay [7] is > 30 µM (inactive).
